Results from patent publication US5668182A, “Method of calming or sedating an animal with a hydroxy benzaldehyde compound” (priority 1996, dated 1997).
Like-named read-outs stand apart in the source and are kept apart here.

Tested on: mice
Assay: Inverted screen test in mice (Example 4)
Format: in vivo
Conditions: for ED50: Mus musculus, ip, read-out: ED-50 (95% confidence limits); for potency relative to vanillin: early time points (up to 5 minutes), ethanol vehicle itself gives approximately 10% impairment
Procedure: An inverted screen test was performed on mice to investigate the effect of vanillin and vanillin analogs on muscular function. After i.p. injection of vanillin or vehicle, each mouse was placed on a wire screen (12.8 cm×12.8 cm with a 6 mm mesh size) and the screen was inverted. A positive effect was found if the drug caused the mouse to fall from the screen within 60 seconds. A negative effect was found if the mouse had the ability to climb from the underside of the screen to the top side of the screen within the 60 second time period. Hanging from the underside of the screen without falling but without climbing to the topside at 60 seconds is recorded as a one-half positive effect per the convention of Coughenour, L. L.; Mclean, J. R.; Parker, R. B., "A New Device for the Rapid Measurement of Impaired Motor Function in Mice," Pharmacol. Biochem. Behav., 6: 351-353; 1977. The test was performed at 2, 5, 10, and 30 minutes following administration of vanillin or vehicle. At each of those times, an ED-50 (and 95% confidence limits) was determined for vanillin. Six mice were used in each experimental group.
Several analogs of vanillin were also examined in this test. The chemical structures and chemical names for these compounds are described hereinabove.
The testing of these compounds was limited both by supply of compound and by solubility. Testing was performed at 2, 5, 10, 20 minutes after administration of drug or vehicle. The vehicles used to solubilize the analogs were as follows: 10% ethanol for TBJ1, TBJ2, and TBJ3; 3% ammonium hydroxide solution in saline for FSA (pH=9); 6.7% ammonium hydroxide in saline for TB17 (pH=9.3); and 20% ethanol, 1% ammonium hydroxide solution in saline for TB34 (pH=10.0). ED-50s of compounds (and 95% confidence limits) were calculated in cases where the data permitted the calculation.

COC(=O)Cc1ccc(O)c(OC)c1 [TBJ3]
ED-50: activity in words (10 min post-treatment, inactive at 200 (mg/kg)): inactive
ED50 (5 min, 5 min post-treatment): 99.7 mg/kg
time by which effect had essentially abated (after injection): ≤ 10 min
potency relative to vanillin: approximately equipotent to vanillin

COC(=O)c1ccc(OC)c(O)c1 [TBJ2]
ED50 (2 min, 2 min post-treatment): ~100 mg/kg
ED50 (5 min, 5 min post-treatment): > 100 mg/kg
ED50 (10 min, 10 min post-treatment): 132 mg/kg
ED50 (20 min, at 20 min (printed in the 30 min line)): ~140 mg/kg
potency relative to vanillin: approximately equipotent to vanillin
persistence of effect on performance (highest dose (200 mg/kg)): 20 min
potency and duration relative to vanillin (mouse, in vivo): approximately equipotent and as long or longer acting

O=Cc1ccc(OCc2ccc(C(=O)O)cc2)c(C(=O)O)c1 [TB34]
effect on performance in inverted screen test (not included in Table 4): mild or erratic effects

COC(=O)c1ccc(O)c(OC)c1 [TBJ1]
effect on performance in inverted screen test (200 mg/kg, 5 minutes): 100%
effect on performance in inverted screen test (200 mg/kg, 20 minutes): 75%
effect on performance in inverted screen test (doses lower than 200 mg/kg): did not produce significant effects

O=Cc1ccc(O)c(C(=O)O)c1 [FSA]
effect on performance in inverted screen test (not included in Table 4): failed to affect performance

O=Cc1ccc(OCc2ccccc2)c(C(=O)O)c1 [TB17]
effect on performance in inverted screen test (not included in Table 4): failed to affect performance
